Measured values taken from publication PMC10413337 (RSC Advances, 2023).

Assays:
hepatic carcinoma HepG-2 = assay: MTT cytotoxicity evaluation, HepG-2; type: cell-based; conditions: Homo sapiens, HepG2, read-out: IC50 (μM ± SD) HepG-2
colon carcinoma Caco2 = assay: MTT cytotoxicity evaluation, Caco2; type: cell-based; conditions: Homo sapiens, Caco-2, read-out: IC50 (μM ± SD) Caco2
[1] = tested on: normal lung fibroblast WI-38; assay: MTT cytotoxicity evaluation, normal WI-38; type: cell-based; conditions: Homo sapiens, WI-38, read-out: IC50 (μM ± SD) WI-38
breast MCF-7 = assay: MTT cytotoxicity evaluation, MCF-7; conditions: for IC50: Homo sapiens, MCF7, read-out: IC50 (μM ± SD) MCF-7
HepG-2, Caco2, and MCF-7 = assay: MTT cytotoxicity, statements over the three cancer cell lines; type: cell-based, human; conditions: 9c versus 3

Compound	IC50 (hepatic carcinoma HepG-2) [µM]	IC50 (colon carcinoma Caco2) [µM]	IC50 [1] [µM]	IC50 (breast MCF-7) [µM]	improvement of the cytotoxic effect, times (breast MCF-7; thiosemicarbazone 3 versus acetyl derivative 1, MCF-7) [times]	drop in cytotoxicity, times (HepG-2, Caco2, and MCF-7) [times]
CC(=NNc1nc(-c2ccccc2)cs1)c1nn(-c2ccc(S(N)(=O)=O)cc2)c(=N)s1 [Compound 4, 4-(2-Imino-5-(1-(2-(4-phenylthiazol-2-yl)hydrazineylidene)ethyl)-1,3,4-thiadiazol-3(2H)yl)benzenesulfonamide]	0.5 ± 0.04	3.19 ± 0.2	21.4 ± 1.1	3.52 ± 0.2		
C=CCn1c(-c2ccccc2)csc1=NN=C(C)c1nn(-c2ccc(S(N)(=O)=O)cc2)c(=N)s1 [Compound 12b, 4-(5-(1-((3-Allyl-4-phenylthiazol-2(3H)-ylidene)hydrazono)ethyl)-2-imino-1,3,4-thiadiazol-3(2H)-yl)benzenesulfonamide]	17.5 ± 1.5	25.5 ± 1.3	63.5 ± 3.9	15.1 ± 0.7		
CC(=NNC(N)=S)c1nn(-c2ccc(S(N)(=O)=O)cc2)c(=N)s1 [Compound 3, 2-(1-(5-imino-4-(4-sulfamoylphenyl)-4,5-dihydro-1,3,4-thiadiazol-2-yl)ethylidene)hydrazine-1-carbothioamide]	4.57 ± 0.3	14.9 ± 0.7	44.4 ± 2.3	6.38 ± 0.3	2.5	
CC(=O)c1nn(-c2ccc(S(N)(=O)=O)cc2)c(=N)s1 [Compound 1, 5-acetyl-3-N-(4-sulfamoylphenyl)-2-imino-1,3,4-thiadiazoline]	59.6 ± 3.4	11.1 ± 0.6	91.5 ± 4.7	14.9 ± 0.7		
C=CCNC(=S)NN=C(C)c1nn(-c2ccc(S(N)(=O)=O)cc2)c(=N)s1 [Compound 9b, N-Allyl-2-(1-(5-imino-4-(4-sulfamoylphenyl)-4,5-di-hydro-1,3,4-thiadiazol-2-yl)ethylidene)hydrazine-1-carbothioamide]	149 ± 8.4	74.8 ± 3.7	92.9 ± 4.8	73 ± 3.3		
CNC(=S)NN=C(C)c1nn(-c2ccc(S(N)(=O)=O)cc2)c(=N)s1 [Compound 9a, 2-(1-(5-Imino-4-(4-sulfamoylphenyl)-4,5-dihydro-1,3,4-thiadiazol-2-yl)ethylidene)-N-methylhydrazine-1-carbothioamide]	0.53 ± 0.01	1.01 ± 0.1	18.4 ± 1.7	1.12 ± 0.1		
CCOC(=O)c1sc(NN=C(C)c2nn(-c3ccc(S(N)(=O)=O)cc3)c(=N)s2)nc1C [Compound 7, Ethyl-2-(2-(1-(5-imino-4-(4-sulfamoylphenyl)-4,5-dihydro-1,3,4-thiadiazol-2-yl)ethylidene)hydrazineyl)-4-methylthiazole-5-carboxylate]	19.6 ± 1.1	7.39 ± 0.4	42.9 ± 2.2	12.6 ± 0.6		
CC(=O)c1sc(NN=C(C)c2nn(-c3ccc(S(N)(=O)=O)cc3)c(=N)s2)nc1C [Compound 6, 4-(5-(1-(2-(5-Acetyl-4-methylthiazol-2-yl)hydrazineylidene)ethyl)-2-imino-1,3,4-thiadiazol-3(2H)-yl)benzenesulfonamide]	32.9 ± 1.9	33.8 ± 1.7	110 ± 5.7	21.2 ± 1.2		
CC(=NN=c1scc(-c2ccccc2)n1-c1ccc(Cl)cc1)c1nn(-c2ccc(S(N)(=O)=O)cc2)c(=N)s1 [Compound 12d, 4-(5-(1-((3-(4-Chlorophenyl)-4-phenylthiazol-2(3H)-ylidene)hydrazono)ethyl)-2-imino-1,3,4-thiadiazol-3(2H)-yl)benzenesulfonamide]	4.26 ± 0.2	1.06 ± 0.1	46.6 ± 2.4	3.79 ± 0.2		
CC(=NNC1=NC(=O)CS1)c1nn(-c2ccc(S(N)(=O)=O)cc2)c(=N)s1 [Compound 8, 4-(2-Imino-5-(1-(2-(4-oxo-4,5-dihydrothiazol-2-yl)hydrazineylidene)ethyl)-1,3,4-thiadiazol-3(2H)-yl)benzenesulfonamide]	11.3 ± 0.6	5.31 ± 0.3	22.9 ± 1.2	27.2 ± 1.2		
CC(=NNC(=S)Nc1ccc(Cl)cc1)c1nn(-c2ccc(S(N)(=O)=O)cc2)c(=N)s1 [Compound 9d, N-(4-Chlorophenyl)-2-(1-(5-imino-4-(4-sulfamoylphenyl)-4,5-dihydro-1,3,4-thiadiazol-2-yl)-ethylidene)hydrazine-1-carbothioamide]	153 ± 8.6	98.7 ± 4.9	60.7 ± 3.1	42.6 ± 1.8		
CC(=NNC(=S)Nc1ccccc1)c1nn(-c2ccc(S(N)(=O)=O)cc2)c(=N)s1 [Compound 9c, 2-(1-(5-imino-4-(4-sulfamoylphenyl)-4,5-di-hydro-1,3,4-thiadiazol-2-yl)ethylidene)-N-phenylhydrazine-1-carbothioamide]	37.1 ± 2.1	34.7 ± 1.7	28.5 ± 1.5	21.1 ± 0.9		10
